Results taken from patent US9314420B2, “Acellular bioabsorbable tissue regeneration matrices” (priority 2005, dated 2016).
Read-outs that look alike come from different tables or passages of the source.

Key:
[1] = tested on: Fibroblast control cultures; settings: by day 7
Experimental: The inhibitors were added on day 0 to the Opticells® on the day of first feeding (day 5 or 6). Thereafter, cultures were fed with regular media. Samples from the respective treatments and controls were collected on day 21 and analyzed.
Fibroblast control cultures containing 0, 10, 30 and 100 nM of α-amanitin were cultured for one week.

[2] = tested on: Neuroscreen® cells; assay: Neuroscreen cell neurite outgrowth assay; assay type: cell-based, rat; settings: standard NGF response curve
Experimental: The Neuroscreen® cells responded by extending neurites.
Neuroscreen® cells were maintained prior to the interaction assay by routine culture on collagen coated plastic and subcultured at confluence using basal medium consisting of RPMI (Cat #10-040-CV, Mediatech), 4.0 mM Glutamine (CAT #25-005-CI, Mediatech) supplemented with 20% Horse Serum (Cat #35-030-CV, Mediatech), 10% Fetal Bovine Serum (Cat #35-010, Mediatech).
[…] Neuroscreen® cells were assayed for the formation of neurite process extension using immuno-staining for β-tubulin as follows. Cells were fixed after 4 days in culture by adding 10% v/v of 37% formaldehyde (Cat. #2106-01, J. T. Baker) directly to the culture medium in the well. […]
Only wells with cell counts above 100 cells per field were analyzed. […]
Human peripheral blood collected into ten 8 ml Vacutainer™ tubes containing K2EDTA was shipped overnight on ice and then placed vertically into a +4° C. fridge for 6 hours in order to allow the blood to gravity separate. […] After thoroughly mixing the contents of each conical tube, 10 ml quantities of the solutions were injected into separate sets of 5 Opticells™, and then placed horizontally into a 37° C., […], 2% O2, non-humidified incubator. […]

Compound: CC[C@H](C)[C@@H]1NC(=O)CNC(=O)[C@@H]2Cc3c([nH]c4cc(O)ccc34)[S+]([O-])C[C@@H](NC(=O)CNC1=O)C(=O)N[C@@H](CC(N)=O)C(=O)N1C[C@H](O)C[C@H]1C(=O)N[C@@H]([C@@H](C)[C@@H](O)CO)C(=O)N2 (stereo in doubt) [α-amanitin]
- Mortality ([1]; 10 nM): 60-70%
- Mortality ([1]; 30 nM): 80-90%
- Mortality ([1]; 100 nM): ~100%

Compound: NGF: nerve growth factor, positive control at 100 ng/ml
- Effect of fresh NGF at amounts less than 10 ng per well [2]: limited or no effect
- NGF amount at which maximal responses occur ([2]; fresh NGF): 100 ng of NGF per well
